Assay [1] deals with Enterobacter gergoviae ATCC 33028. The assay is described as follows: Liquid broth assay (MIC and checkerboard) against Enterobacter gergoviae. It is filed as cell-based. Conditions: Pluralibacter gergoviae, ATCC33028, component by itself, 30° C., 24 hours, OD600, <25% growth vs control, read-out: minimal inhibitory concentration (MIC). The source says:
(§1) Naturally derived antimicrobial systems were made, as shown below by combining the beta carboline alkaloid and phenolic acid. Two pools were set up and each pool contained 1 organism. The strains involved were Enterobacter gergoviae ATCC 33028 of the family Pluralibacter gergoviae, a Gram-negative and Aspergillus brasiliensis ATCC 16404. The FIC test range was 16 times greater than the projected MIC for each sample.
(§2) The differing behaviors of inhibitory antimicrobials in isolation and mixtures have been widely explored using the concept of the Fractional Concentration and Fractional Inhibitory Concentration (FIC). See for instance JRW Lambert and R Lambert, J. Appl. Microbiol 95, 734 (2003); T. Jadavji, CG Prober and R Cheung, Antibacterial Agents and Chemotherapy 26, 91 (1984), and WO 2004/006876. MIC is the minimum inhibitory concentration a component prevents visible growth of a microbe. The FC and FIC parameters can be defined as follows: […]
(§3) Liquid broth assays (MIC and checkerboard) were conducted to identify the minimum concentration(s) of individual and binary combinations of natural preservation materials. […] Each of the two-preservation chemical/broth mixes was then combined in a third 96 well plate at varying concentrations and then inoculated with 1-5x106 microorganisms and incubated at 30° C. for 24 hours, after which optical densities at OD600 nm were measured.

Assay [2] relates to Aspergillus brasiliensis ATCC 16404. Nature of the assay: Liquid broth assay (MIC and checkerboard) against Aspergillus brasiliensis. Conditions: ATCC16404, component by itself, 30° C., 24 hours, OD600, <25% growth vs control. Type of assay: cell-based.
Source text: as §1, §2, §3

On to `COc1cc(C(=O)O)cc(OC)c1O` [Syringic Acid, 4-Hydroxy-3,5-dimethoxybenzoic acid], for which the MIC in assay [1] and in assay [2] was over 50 mg/mL in each case.

The values are drawn from US20250099357A1, “ANT[…] WITH BETA CARBOLINE ALKALOID AND PHENOLIC ACID AND CO[…]” (Conopco, Inc., d/b/a UNILEVER, priority 2021, published 2025).
